Patent US20210045385A1, “PYRIDAZINONE-SUBSTITUTED KETOXIMES AS HERBICIDES” (FMC Corporation, priority 2018, published 2021)

Tests used:
Format in all cases: in vivo
[1] = tested on: sedge, umbrella (small-flower umbrella sedge, Cyperus difformis); test: Test B flooded paddy test, visual plant response rating; conditions: 250 g ai/ha, Flood, applied to paddy water, 2-leaf stage, evaluated after 13 to 15 days
Method in brief: (§1)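 Seedlings at 2 leaves; compound into paddy water (3 cm flood, maintained); 13–15 d greenhouse; visual score relative to controls.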

[2] = tested on: ducksalad (Heteranhera limosa); test: as above; conditions: 250 g ai/ha, Flood, applied to paddy water, 2-leaf stage, evaluated after 13 to 15 days
Method in brief: as §1

[3] = tested on: barnyardgrass (Echinochloa crus-galli); test: as above; conditions: 250 g ai/ha, Flood, applied to paddy water, 2-leaf stage, evaluated after 13 to 15 days
Method in brief: as §1

rice (Oryza sativa) = test: as above; conditions: 250 g ai/ha, Flood, applied to paddy water, 2-leaf stage, evaluated after 13 to 15 days
Method in brief: as §1

[4] = tested on: Italian ryegrass (Lolium multiflorum); test: Test A preemergence, visual plant response rating; conditions: for Ryegrass, Italian plant response rating: 125 g ai/ha, preemergence, 0 to 100 scale, 0 no effect, 100 complete control; for Ryegrass, Italian plant response rating (0 to 100 scale): 500 g ai/ha Preemergence, approx. 10 days
Method in brief: (§2)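 Greenhouse pot test in loam–sand soil mix: compound in a surfactant-containing non-phytotoxic solvent applied preemergence (directed soil spray) or postemergence (one- to two-leaf plants, 2–10 cm). Injury scored visually after ~10 days, 0–100.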

[5] = tested on: pigweed (Amaranthus retroflexus); test: Test A preemergence, visual plant response rating; conditions: for Pigweed plant response rating: 125 g ai/ha, preemergence, 0 to 100 scale, 0 no effect, 100 complete control; for Pigweed plant response rating (0 to 100 scale): 500 g ai/ha Preemergence, approx. 10 days
Method in brief: as §2

[6] = tested on: foxtail, giant (giant foxtail, Setaria faberii); test: Test A preemergence, visual plant response rating; conditions: for Foxtail, Giant plant response rating: 125 g ai/ha, preemergence, 0 to 100 scale, 0 no effect, 100 complete control; for Foxtail, Giant plant response rating (0 to 100 scale): 500 g ai/ha Preemergence, approx. 10 days
Method in brief: as §2

[7] = tested on: ragweed (common ragweed, Ambrosia elatior); test: Test A preemergence, visual plant response rating; conditions: for Ragweed plant response rating: 125 g ai/ha, preemergence, 0 to 100 scale, 0 no effect, 100 complete control; for Ragweed plant response rating (0 to 100 scale): 500 g ai/ha Preemergence, approx. 10 days
Method in brief: as §2

kochia (Kochia scoparia) [8] = test: Test A preemergence, visual plant response rating; conditions: for Kochia plant response rating: 125 g ai/ha, preemergence, 0 to 100 scale, 0 no effect, 100 complete control; for Kochia plant response rating (0 to 100 scale): 500 g ai/ha Preemergence, approx. 10 days
Method in brief: as §2

[9] = tested on: barnyardgrass (Echinochloa crus-galli); test: Test A preemergence, visual plant response rating; conditions: for Barnyardgrass plant response rating: 125 g ai/ha, preemergence, 0 to 100 scale, 0 no effect, 100 complete control; for Barnyardgrass plant response rating (0 to 100 scale): 500 g ai/ha Preemergence, approx. 10 days
Method in brief: as §2

[10] = tested on: Italian ryegrass (Lolium multiflorum); test: Test A postemergence, visual plant response rating; conditions: for Ryegrass, Italian plant response rating (0 to 100 scale): 500 g ai/ha, postemergence, 0 is no effect, 100 is complete control; for Ryegrass, Italian plant response rating: Postemergence, 125 g ai/ha, 0 to 100 scale (0 no effect, 100 complete control)
Method in brief: as §2

corn (Zea mays) = test: Test A postemergence, visual plant response rating; conditions: for Corn plant response rating (0 to 100 scale): 500 g ai/ha, postemergence, 0 is no effect, 100 is complete control; for Corn plant response rating: Postemergence, 125 g ai/ha, 0 to 100 scale (0 no effect, 100 complete control)
Method in brief: as §2

[11] = tested on: wheat (Triticum aestivum); test: Test A postemergence, visual plant response rating; conditions: for Wheat plant response rating (0 to 100 scale): 500 g ai/ha, postemergence, 0 is no effect, 100 is complete control; for Wheat plant response rating: Postemergence, 125 g ai/ha, 0 to 100 scale (0 no effect, 100 complete control)
Method in brief: as §2

[12] = tested on: pigweed (Amaranthus retroflexus); test: Test A postemergence, visual plant response rating; conditions: for Pigweed plant response rating (0 to 100 scale): 500 g ai/ha, postemergence, 0 is no effect, 100 is complete control; for Pigweed plant response rating: Postemergence, 125 g ai/ha, 0 to 100 scale (0 no effect, 100 complete control)
Method in brief: as §2

[13] = tested on: foxtail, giant (giant foxtail, Setaria faberii); test: Test A postemergence, visual plant response rating; conditions: for Foxtail, Giant plant response rating (0 to 100 scale): 500 g ai/ha, postemergence, 0 is no effect, 100 is complete control; for Foxtail, Giant plant response rating: Postemergence, 125 g ai/ha, 0 to 100 scale (0 no effect, 100 complete control)
Method in brief: as §2

[14] = tested on: ragweed (common ragweed, Ambrosia elatior); test: Test A postemergence, visual plant response rating; conditions: for Ragweed plant response rating (0 to 100 scale): 500 g ai/ha, postemergence, 0 is no effect, 100 is complete control; for Ragweed plant response rating: Postemergence, 125 g ai/ha, 0 to 100 scale (0 no effect, 100 complete control)
Method in brief: as §2

kochia (Kochia scoparia) [15] = test: Test A postemergence, visual plant response rating; conditions: for Kochia plant response rating (0 to 100 scale): 500 g ai/ha, postemergence, 0 is no effect, 100 is complete control; for Kochia plant response rating: Postemergence, 125 g ai/ha, 0 to 100 scale (0 no effect, 100 complete control)
Method in brief: as §2

[16] = tested on: galium (catchweed bedstraw, Galium aparine); test: Test A postemergence, visual plant response rating; conditions: for Galium plant response rating (0 to 100 scale): 500 g ai/ha, postemergence, 0 is no effect, 100 is complete control; for Galium plant response rating: Postemergence, 125 g ai/ha, 0 to 100 scale (0 no effect, 100 complete control)
Method in brief: as §2

[17] = tested on: blackgrass (Alopecurus myosuroides); test: Test A postemergence, visual plant response rating; conditions: for Blackgrass plant response rating (0 to 100 scale): 500 g ai/ha, postemergence, 0 is no effect, 100 is complete control; for Blackgrass plant response rating: Postemergence, 125 g ai/ha, 0 to 100 scale (0 no effect, 100 complete control)
Method in brief: as §2

[18] = tested on: barnyardgrass (Echinochloa crus-galli); test: Test A postemergence, visual plant response rating; conditions: for Barnyardgrass plant response rating (0 to 100 scale): 500 g ai/ha, postemergence, 0 is no effect, 100 is complete control; for Barnyardgrass plant response rating: Postemergence, 125 g ai/ha, 0 to 100 scale (0 no effect, 100 complete control)
Method in brief: as §2

Row | SMILES | Plant response rating, Sedge, Umbrella (0 to 100 scale, 0 is no effect, 100 is complete control) [1] | Plant response rating, Ducksalad (0 to 100 scale, 0 is no effect, 100 is complete control) [2] | Plant response rating, Barnyardgrass (0 to 100 scale, 0 is no effect, 100 is complete control) [3] | Plant response rating, Rice (0 to 100 scale, 0 is no effect, 100 is complete control) (rice (Oryza sativa)) | Ryegrass, Italian plant response rating [4] | Ryegrass, Italian plant response rating (0 to 100 scale) [4] | Pigweed plant response rating [5] | Pigweed plant response rating (0 to 100 scale) [5] | Foxtail, Giant plant response rating [6] | Foxtail, Giant plant response rating (0 to 100 scale) [6] | Ragweed plant response rating [7] | Ragweed plant response rating (0 to 100 scale) [7] | Kochia plant response rating (kochia (Kochia scoparia) [8]) | Kochia plant response rating (0 to 100 scale) (kochia (Kochia scoparia) [8]) | Barnyardgrass plant response rating [9] | Barnyardgrass plant response rating (0 to 100 scale) [9] | Ryegrass, Italian plant response rating (0 to 100 scale) [10] | Ryegrass, Italian plant response rating [10] | Corn plant response rating (0 to 100 scale) (corn (Zea mays)) | Corn plant response rating (corn (Zea mays)) | other results
1 | CO/N=C(/c1ccccc1C#N)c1c(O)c(C)nn(C)c1=O [Compound 77] | 0 | 0 | 0 | 0 | 0 | 0 | 0 | 0 | 0 | 0 | 10 | 30 | 0 | 0 | 0 | 0 | 20 | 0 | 0 | 0 | Wheat plant response rating (0 to 100 scale) [11]: 0; Wheat plant response rating [11]: 0; Pigweed plant response rating (0 to 100 scale) [12]: 70; Pigweed plant response rating [12]: 30; Foxtail, Giant plant response rating (0 to 100 scale) [13]: 10; Foxtail, Giant plant response rating [13]: 0; Ragweed plant response rating (0 to 100 scale) [14]: 30; Ragweed plant response rating [14]: 0; Kochia plant response rating (0 to 100 scale) (kochia (Kochia scoparia) [15]): 30; Kochia plant response rating (kochia (Kochia scoparia) [15]): 0; Galium plant response rating (0 to 100 scale) [16]: 40; Galium plant response rating [16]: 40; Blackgrass plant response rating (0 to 100 scale) [17]: 0; Blackgrass plant response rating [17]: 0; Barnyardgrass plant response rating (0 to 100 scale) [18]: 0; Barnyardgrass plant response rating [18]: 0
2 | CCO/N=C(/c1c(O)c(C)nn(C)c1=O)c1cccc2ccccc12 [Compound 78] | 0 | 0 | 0 | 0 | 30 | 50 | 20 | 100 | 80 | 90 | 90 | 90 | 10 | 30 | 80 | 80 | 40 | 30 | 30 | 20 | Wheat plant response rating (0 to 100 scale) [11]: 0; Wheat plant response rating [11]: 0; Pigweed plant response rating (0 to 100 scale) [12]: 90; Pigweed plant response rating [12]: 80; Foxtail, Giant plant response rating (0 to 100 scale) [13]: 80; Foxtail, Giant plant response rating [13]: 70; Ragweed plant response rating (0 to 100 scale) [14]: 90; Ragweed plant response rating [14]: 80; Kochia plant response rating (0 to 100 scale) (kochia (Kochia scoparia) [15]): 70; Kochia plant response rating (kochia (Kochia scoparia) [15]): 60; Galium plant response rating (0 to 100 scale) [16]: 100; Galium plant response rating [16]: 90; Blackgrass plant response rating (0 to 100 scale) [17]: 80; Blackgrass plant response rating [17]: 70; Barnyardgrass plant response rating (0 to 100 scale) [18]: 80; Barnyardgrass plant response rating [18]: 40
3 | CCO/N=C(\c1c(O)c(C)nn(C)c1=O)c1cccc2ccccc12 [Compound 79] | 0 | 0 | 0 | 0 | 30 | 60 | 30 | 100 | 60 | 90 | 90 | 100 | 10 | 70 | 70 | 80 | 30 | 30 | 20 | 10 | Wheat plant response rating (0 to 100 scale) [11]: 0; Wheat plant response rating [11]: 0; Pigweed plant response rating (0 to 100 scale) [12]: 90; Pigweed plant response rating [12]: 80; Foxtail, Giant plant response rating (0 to 100 scale) [13]: 80; Foxtail, Giant plant response rating [13]: 60; Ragweed plant response rating (0 to 100 scale) [14]: 100; Ragweed plant response rating [14]: 90; Kochia plant response rating (0 to 100 scale) (kochia (Kochia scoparia) [15]): 80; Kochia plant response rating (kochia (Kochia scoparia) [15]): 70; Galium plant response rating (0 to 100 scale) [16]: 100; Galium plant response rating [16]: 90; Blackgrass plant response rating (0 to 100 scale) [17]: 80; Blackgrass plant response rating [17]: 70; Barnyardgrass plant response rating (0 to 100 scale) [18]: 90; Barnyardgrass plant response rating [18]: 40
